Results on one substance are retold here after patent EP2457916A1, “Compound for the covalent attachment of the chemiluminescent probe N-(4-Aminobutyl)-N-ethylisoluminol (ABEI) to target molecules and uses thereof” (DiaSorin S.p.A., priority 2010, dated 2012).

A short description of the series: Stability of compound (1a) dissolved in organic solvents, formation of the hydrolysis product (ABEI-glutaric acid) monitored by HPLC. In kind it is physicochemical. The method, then:
The stability of compound (1a) dissolved in organic solvents (DMSO, acetonitrile) was evaluated at two different storage temperatures, -30°C and +4°C, by monitoring the formation of the hydrolysis product (ABEI-glutaric acid) using a chromatographic HPLC system.
Within the limits of reproducibility of the experimental determination, less than 2% of compound (1a) was hydrolysed to glutaric acid after 270 days at -30°C (Fig. 9), while less than 7% of compound (1a) was hydrolysed to acid at +4°C after 38 days (Fig. 10). This compares to the reported high instability of equivalent NHS esters which have half-lives of hours under physiological pH conditions. At 0°C and at pH 7, the half-life is typically 4-5 h [Lomant, A.J., Fairbanks, G. J. Mol. Biol. 1976, 104, 243-261], at pH 8.6 and 4°C this falls to only 10 min [Cuatrecaseas, P., Parikh, I. Biochemistry 1972, 11, 2291-2299].

Turning to “N-(4-Aminobutyl)-N-ethylisoluminol anhydroglutarate [compound (1a)]”, the “compound (1a) hydrolysed to glutaric acid” value (solution (DMSO), after 270 days at -30°C (Fig. 9)) was “less than 2%”. For the same substance, the “compound (1a) hydrolysed to acid” value (solution (DMSO), at +4°C after 38 days (Fig. 10)) was “less than 7%”. In addition, the “stability of solution (in DMSO)” value (stored at from +4°C to -30°C) is on record as “highly stable”.
